Reference: ChEMBL document CHEMBL1150582, “Brominated labdane-type diterpenoids from an Okinawan Laurencia sp” (J Nat Prod, 2002)
Calls of active or inactive are those of the source.

Tests used:
Format in all cases: functional, organism-based
[1] = test system: Staphylococcus epidermidis; assay: Antibacterial activity against Staphylococcus epidermidis by paper disk diffusion method
Staphylococcus aureus = assay: Antibacterial activity against Staphylococcus aureus by paper disk diffusion method
Salmonella sp. = assay: Antibacterial activity against Salmonella sp. by paper disk diffusion method
Escherichia coli = assay: Antibacterial activity against Escherichia coli by paper disk diffusion method
Pseudomonas sp. = assay: Antibacterial activity against Pseudomonas sp. by paper disk diffusion method

Measured: Activity

C=C[C@@]1(C)CC[C@H]2[C@]3(C)C(=O)C[C@@H](Br)C(C)(C)[C@H]3[C@@H](O)C[C@]2(C)O1
inactive: all assays above

C=C[C@@]1(C)CC[C@H]2[C@]3(C)[C@@H](OC(C)=O)C[C@@H](Br)C(C)(C)[C@H]3[C@@H](O)C[C@]2(C)O1
inactive: all assays above
